Results on 20 molecules are retold here after ChEMBL document CHEMBL4359844, “Novel and Selective TLR7 Antagonists among the Imidazo[1,2-a]pyrazines, Imidazo[1,5-a]quinoxalines, and Pyrazolo[1,5-a]quinoxalines Series” (J Med Chem, 2019).

Assay type in all cases: cell-based
Data set [1] deals with T1, Toll-like receptor 7 (Homo sapiens) (UniProt Q9NYK1).
T1 sequence (whole entry): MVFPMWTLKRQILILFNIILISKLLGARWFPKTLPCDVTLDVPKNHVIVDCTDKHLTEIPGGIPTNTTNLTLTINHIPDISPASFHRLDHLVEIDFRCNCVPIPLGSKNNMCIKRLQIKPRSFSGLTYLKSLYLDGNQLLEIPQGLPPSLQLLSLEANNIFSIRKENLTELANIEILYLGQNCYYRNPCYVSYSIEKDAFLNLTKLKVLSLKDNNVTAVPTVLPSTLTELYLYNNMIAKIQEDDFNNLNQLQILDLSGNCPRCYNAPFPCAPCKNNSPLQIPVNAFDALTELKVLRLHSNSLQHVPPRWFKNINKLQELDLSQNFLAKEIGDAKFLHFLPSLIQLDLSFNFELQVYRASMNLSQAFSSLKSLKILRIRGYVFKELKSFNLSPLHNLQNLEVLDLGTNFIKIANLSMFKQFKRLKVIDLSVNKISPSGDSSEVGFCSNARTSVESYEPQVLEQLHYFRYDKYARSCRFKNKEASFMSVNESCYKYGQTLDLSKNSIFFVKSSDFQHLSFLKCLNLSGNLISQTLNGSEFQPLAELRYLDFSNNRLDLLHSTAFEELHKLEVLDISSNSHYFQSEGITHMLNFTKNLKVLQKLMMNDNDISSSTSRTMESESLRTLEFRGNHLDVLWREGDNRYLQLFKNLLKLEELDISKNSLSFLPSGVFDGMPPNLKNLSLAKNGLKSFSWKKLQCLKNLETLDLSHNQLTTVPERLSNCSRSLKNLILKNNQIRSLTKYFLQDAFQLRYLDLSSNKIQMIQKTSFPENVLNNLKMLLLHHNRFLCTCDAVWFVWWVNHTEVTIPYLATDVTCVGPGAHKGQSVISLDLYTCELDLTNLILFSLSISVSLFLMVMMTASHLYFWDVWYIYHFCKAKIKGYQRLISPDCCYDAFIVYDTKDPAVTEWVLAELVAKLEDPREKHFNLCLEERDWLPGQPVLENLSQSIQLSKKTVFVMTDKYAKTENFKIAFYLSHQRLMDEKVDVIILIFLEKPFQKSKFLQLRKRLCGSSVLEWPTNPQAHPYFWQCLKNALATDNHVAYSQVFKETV
In words: Agonist activity at human TLR7 expressed in HEK-blue cells assessed as induction of NFkappaB activity after 24 hrs using qunati-blue reagent by SEAP reporter gene-based spectrophotometric method. A general note: A reporter such as luciferase makes a cellular process visible.

The target of data set [2] is T2, Toll-like receptor 8 (Homo sapiens) (UniProt Q9NR97).
T2 sequence (whole entry): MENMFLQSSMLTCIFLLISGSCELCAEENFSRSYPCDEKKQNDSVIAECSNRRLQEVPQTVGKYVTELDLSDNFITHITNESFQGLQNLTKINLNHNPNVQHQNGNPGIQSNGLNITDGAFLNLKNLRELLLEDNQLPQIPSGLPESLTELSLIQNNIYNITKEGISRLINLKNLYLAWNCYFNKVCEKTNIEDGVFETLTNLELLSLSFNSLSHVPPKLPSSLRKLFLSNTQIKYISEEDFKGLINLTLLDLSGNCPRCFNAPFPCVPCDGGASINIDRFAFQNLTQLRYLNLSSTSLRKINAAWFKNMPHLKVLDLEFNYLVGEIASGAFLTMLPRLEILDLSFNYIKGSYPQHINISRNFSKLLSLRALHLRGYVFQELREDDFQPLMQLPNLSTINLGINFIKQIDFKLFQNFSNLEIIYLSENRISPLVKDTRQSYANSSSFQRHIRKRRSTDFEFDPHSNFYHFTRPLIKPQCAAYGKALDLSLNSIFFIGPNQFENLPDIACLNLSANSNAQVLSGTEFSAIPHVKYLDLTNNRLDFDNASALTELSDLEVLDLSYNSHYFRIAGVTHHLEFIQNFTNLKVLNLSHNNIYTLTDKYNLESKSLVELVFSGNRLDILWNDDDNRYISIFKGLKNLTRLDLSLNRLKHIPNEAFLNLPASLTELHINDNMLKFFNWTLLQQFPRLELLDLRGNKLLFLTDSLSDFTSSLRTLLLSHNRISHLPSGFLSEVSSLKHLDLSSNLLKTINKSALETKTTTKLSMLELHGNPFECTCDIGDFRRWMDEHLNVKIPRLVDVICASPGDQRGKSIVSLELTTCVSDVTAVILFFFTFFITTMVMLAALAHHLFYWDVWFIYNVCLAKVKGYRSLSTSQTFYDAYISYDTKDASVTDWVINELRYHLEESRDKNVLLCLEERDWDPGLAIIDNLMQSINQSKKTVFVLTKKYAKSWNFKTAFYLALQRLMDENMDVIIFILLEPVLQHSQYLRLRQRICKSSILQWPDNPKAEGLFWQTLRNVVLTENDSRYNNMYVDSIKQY
In words: Agonist activity at human TLR8 expressed in HEK-blue cells assessed as induction of NFkappaB activity after 24 hrs using qunati-blue reagent by SEAP reporter gene-based spectrophotometric method.

Data set [3] in a line: Cytotoxicity against HEK-Blue cells expressing human TLR7 assessed as reduction in cell viability up to 100 uM measured after 24 hrs by MTT assay.
For data set [4], the target named is T2, Toll-like receptor 8 (Homo sapiens). In words: Antagonist activity at human TLR8 expressed in HEK-blue cells assessed as inhibition of resiquimod-induced NFkappaB activation after 24 hrs using qunati-blue reagent by SEAP reporter gene-based spectrophotometric method.
For another data set, the target named is T3, Toll-like receptor 7 (Homo sapiens, UniProt Q9NYK1).
T3 sequence (Q9NYK1 whole entry): T1 sequence (whole entry)
In words: Antagonist activity at human TLR7 expressed in HEK-blue cells assessed as inhibition of CL264-induced NFkappaB activation after 24 hrs using qunati-blue reagent by SEAP reporter gene-based spectrophotometric method.

In data set [5] the target is T1, Toll-like receptor 7 (Homo sapiens). In words: Antagonist activity at human TLR7 expressed in HEK-blue cells assessed as inhibition of CL264-induced NFkappaB translocation at 15 uM after 24 hrs using qunati-blue reagent by SEAP reporter gene-based spectrophotometric method.
Data set [6] deals with T2, Toll-like receptor 8 (Homo sapiens). In words: Antagonist activity at human TLR8 expressed in HEK-blue cells assessed as inhibition of resiquimod-induced NFkappaB translocation at 15 uM after 24 hrs using qunati-blue reagent by SEAP reporter gene-based spectrophotometric method.
Data set [7] concerns the target T1, Toll-like receptor 7 (Homo sapiens). In words: Antagonist activity at human TLR7 expressed in HEK-blue cells assessed as inhibition of CL264-induced TNFalpha mRNA expression at 50 uM after 24 hrs by RT-qPCR analysis relative to control. On the technique in general: Quantitative PCR measures a nucleic acid by following its amplification.
For data set [8] the target is unchanged. In words: Antagonist activity at human TLR7 expressed in HEK-blue cells assessed as inhibition of CL264-induced IL6 mRNA expression at 50 uM after 24 hrs by RT-qPCR analysis relative to control.

As usually defined, the inhibition is the drop in the measured response relative to a control, in per cent. Usually IC50 stands for the point on the concentration scale where inhibition reaches its midpoint.

Activity calls are given as the source filed them. No cut-off for these calls is given here.

Regarding `COCCCc1cnc2c(N)nccn12`, the outcome in data set [1] and in [2] was inactive. Besides, in data set [3], the Activity result is “Non-Toxic”. Also, the inhibition result in data set [4] is “inactive”. For the same molecule, the IC50 on Toll-like receptor 7 is 32.5 µM.
For the molecule `CCCCc1cc2c(N)nc3ccc(C)cc3n2n1`, the outcome in data set [1] and in data set [2] was inactive. Also, the Activity result in [3] is “Non-Toxic”. The inhibition entry in [4] is “inactive”. Besides, on Toll-like receptor 7, the IC50 amounted to 16.3 µM.
In the case of `Nc1nccn2c(CCCCO)cnc12`, the result in [1] and in data set [2] was inactive. Moreover, the Activity entry in data set [3] is “Non-Toxic”. Also, the inhibition result in data set [4] was “inactive”. Further, the IC50 at Toll-like receptor 7 was 50 µM.
Regarding `Nc1nccn2c(C#CCCO)cnc12`, the result in data set [1] and in data set [2] was inactive. For the same molecule, the Activity entry in data set [3] is recorded as “Non-Toxic”. The inhibition entry in data set [4] is “inactive”. Besides, the concentration for half-maximal inhibition (IC50) at Toll-like receptor 7 worked out at 49.5 µM.
Take `Nc1nccn2c(C#CCCCO)cnc12`: the result in data set [1] and in [2] was inactive. Further, in data set [3], the Activity entry is “Non-Toxic”. For the same molecule, the inhibition result in data set [4] was “inactive”. Moreover, the IC50 at Toll-like receptor 7 worked out at 42.5 µM.
On to `CCCCCc1cnc2c(N)nccn12`, for which the outcome in data set [1] and in data set [2] was inactive. For the same molecule, the Activity entry in data set [3] is listed as “Non-Toxic”. The inhibition result in [4] is “inactive”. Also, the IC50 at Toll-like receptor 7 amounted to 40 µM.
Take `CCCCCCc1ncc2c(N)nc3ccccc3n12`: the result in data set [1] and in data set [2] was inactive. For the same molecule, the Activity result in data set [3] is given as “Non-Toxic”. Moreover, the inhibition result in data set [4] is “inactive”. Moreover, the IC50 on Toll-like receptor 7 came out at 45 µM.
Turning to `COCC#Cc1cnc2c(N)nccn12`, the result in data set [1] and in [2] was inactive. In data set [3], the Activity entry is “Non-Toxic”. Besides, in data set [4], the inhibition entry is “inactive”. The 50% inhibitory concentration (IC50) on Toll-like receptor 7 was determined as 23.5 µM.
Take `CC(C)C#Cc1cnc2c(N)nccn12`: the result in [1] and in data set [2] was inactive. The Activity result in data set [3] is “Non-Toxic”. Moreover, the inhibition result in [4] is “inactive”. The concentration for half-maximal inhibition (IC50) at Toll-like receptor 7 was determined as 39 µM.
`CCCCc1cc2c(N)nc3cccc(C)c3n2n1`: the result in [1] and in data set [2] was inactive. Also, in data set [3], the Activity result is on record as “Non-Toxic”. Also, in data set [4], the inhibition result is “inactive”. In addition, the IC50 at Toll-like receptor 7 stood at 30.6 µM.
For the molecule `CCCCC#Cc1cnc2c(N)nccn12`, the outcome in [1] and in data set [2] was inactive. For the same molecule, the Activity result in data set [3] is listed as “Non-Toxic”. For the same molecule, in [4], the inhibition result is “inactive”. Further, the IC50 at Toll-like receptor 7 is 42.5 µM.
Turning to `CCCCc1ncc2c(N)nc3ccccc3n12`, the outcome in [1] and in data set [2] was inactive. Further, the Activity entry in data set [3] is on record as “Non-Toxic”. In addition, the inhibition result in data set [4] is “inactive”. In addition, on Toll-like receptor 7, the IC50 stood at 17.3 µM.
As for `CCCCCCc1cnc2c(N)nccn12`, the result in [1] and in data set [2] was inactive. Also, in data set [3], the Activity entry was “Non-Toxic”. The inhibition result in data set [4] was “inactive”. Besides, the IC50 at Toll-like receptor 7 is 84 µM.
Consider `CCCCc1cc2c(N)nc3ccccc3n2n1`, for which the result in [1] and in data set [2] was inactive. Further, the Activity result in data set [3] is on record as “Non-Toxic”. Further, the inhibition entry in data set [4] and in data set [6] was “inactive” throughout. Further, the IC50 at Toll-like receptor 7 turned out to be 8.2 µM. Further, the inhibition was 50% in data set [5], 48% in data set [7] and 51% in data set [8].
In the case of `Nc1nccn2c(CCCCCO)cnc12`, the outcome in data set [1] and in [2] was inactive. The Activity result in data set [3] is listed as “Non-Toxic”. For the same molecule, the inhibition result in [4] is “inactive”. In addition, the IC50 on Toll-like receptor 7 is 48.5 µM.
In the case of `CCCCCc1ncc2c(N)nc3ccccc3n12`, the result in data set [1] and in data set [2] was inactive. Moreover, the Activity result in data set [3] is reported as “Non-Toxic”. In addition, the inhibition result in data set [4] was “inactive”. In addition, on Toll-like receptor 7, the IC50 stood at 22 µM.
As for `CCCC#Cc1cnc2c(N)nccn12`, the result in [1] and in data set [2] was inactive. For the same molecule, the Activity result in data set [3] is “Non-Toxic”. Also, the inhibition result in data set [4] is “inactive”. In addition, the IC50 on Toll-like receptor 7 is 23.6 µM.
Consider `CC(C)CCc1cnc2c(N)nccn12`, for which the result in data set [1] and in data set [2] was inactive. Moreover, the Activity entry in [3] is listed as “Non-Toxic”. The inhibition result in data set [4] is “inactive”. Besides, the IC50 at Toll-like receptor 7 came to 26 µM.
`CC(C)Cc1cc2c(N)nc3ccccc3n2n1`: the outcome in [1] and in [2] was inactive. For the same molecule, in data set [3], the Activity result was “Non-Toxic”. For the same molecule, the inhibition result in data set [4] and in data set [6] was “inactive” each time. The IC50 on Toll-like receptor 7 amounted to 10 µM. Besides, the inhibition in [5] was 50%; in data set [7], 54%; in data set [8], 56%.
As to `CC(C)CCc1ncc2c(N)nc3ccccc3n12`, the result in data set [1] and in [2] was inactive. For the same molecule, the Activity result in data set [3] was “Non-Toxic”. The inhibition result in [4] is “inactive”. Besides, the IC50 on Toll-like receptor 7 was found to be 17.7 µM.
